Test results: patent US5292733A, “Cephalosporin compounds” (Lucky Limited, priority 1991, dated 1994)
Values after ≈ are worked out from the molar mass of the structure shown. Read-outs that look alike come from different tables or passages of the source.

What was measured:
Assay in all cases: Antibacterial activity MIC, two-fold agar dilution
Format in all cases: cell-based
[1] = tested on: Staphylococcus epidermidis ATCC 12228; settings: read-out: Antibacterial Activity MIC
Description: (§1) These MIC values were taken by employing a two-fold dilution method: that is, two-fold serial dilutions of each of the test compounds were made and dispersed in a Muller-Hinton agar medium; 2 μl of the standard test strain which had the 10^7 CFU(Colony Forming Unit) per ml was inoculated on the medium; and these were incubated at 37° C. for 20 hours. The results of the MIC tests are shown Table 1.

[2] = tested on: Morganella morganii ATCC 8076h; settings: ATCC8076H, Muller-Hinton agar, 37° C., 20 hours
Description: as §1

[3] = tested on: Pseudomonas aeruginosa ATCC 25619; settings: read-out: Antibacterial Activity MIC
Description: as §1

[4] = tested on: Acinetobacter calcoaceticus ATCC 15473; settings: read-out: Antibacterial Activity MIC
Description: as §1

[5] = tested on: Pseudomonas aeruginosa ATCC 10145; settings: read-out: Antibacterial Activity MIC
Description: as §1

[6] = tested on: Micrococcus luteus ATCC 9341; settings: read-out: Antibacterial Activity MIC
Description: as §1

[7] = tested on: Proteus mirabilis ATCC 25933; settings: read-out: Antibacterial Activity MIC
Description: as §1

[8] = tested on: Klebsiella pneumoniae ATCC 10031; settings: read-out: Antibacterial Activity MIC
Description: as §1

[9] = tested on: Escherichia coli ATCC 10536; settings: ATCC10536, Muller-Hinton agar, 37° C., 20 hours
Description: as §1

[10] = tested on: Escherichia coli ATCC 25922; settings: ATCC25922, Muller-Hinton agar, 37° C., 20 hours
Description: as §1

[11] = tested on: Bacillus cereus ATCC 11778; settings: read-out: Antibacterial Activity MIC
Description: as §1

[12] = tested on: Proteus vulgaris ATCC 6059; settings: read-out: Antibacterial Activity MIC
Description: as §1

[13] = tested on: Bacillus megaterium ATCC 9885; settings: Priestia megaterium, read-out: Antibacterial Activity MIC
Description: as §1

[14] = tested on: Pseudomonas aeruginosa ATCC 27853; settings: read-out: Antibacterial Activity MIC
Description: as §1

[15] = tested on: Staphylococcus aureus ATCC 6538p; settings: ATCC6538P, read-out: Antibacterial Activity MIC
Description: as §1

[16] = tested on: Streptococcus faecalis ATCC 29212; settings: Enterococcus faecalis, read-out: Antibacterial Activity MIC
Description: as §1

[17] = tested on: Providencia rettgeri ATCC 9250; settings: ATCC9250, Muller-Hinton agar, 37° C., 20 hours
Description: as §1

[18] = tested on: Enterobacter aerogenes ATCC 29751; settings: Klebsiella aerogenes, read-out: Antibacterial Activity MIC
Description: as §1

[19] = tested on: Serratia marcescens ATCC 27117; settings: read-out: Antibacterial Activity MIC
Description: as §1

[20] = tested on: Shigella sonnei ATCC 11060; settings: ATCC11060, Muller-Hinton agar, 37° C., 20 hours
Description: as §1

[21] = tested on: Enterobacter cloacae ATCC 27508; settings: read-out: Antibacterial Activity MIC
Description: as §1

[22] = tested on: Salmonella typhimurium ATCC 14028; settings: Salmonella enterica, read-out: Antibacterial Activity MIC
Description: as §1

[23] = tested on: Shigella flexneri ATCC 11836; settings: ATCC11836, Muller-Hinton agar, 37° C., 20 hours
Description: as §1

[24] = tested on: Citrobacter freundii ATCC 8090; settings: read-out: Antibacterial Activity MIC
Description: as §1

[25] = tested on: Staphylococcus aureus ATCC 10537; settings: read-out: Antibacterial Activity MIC
Description: as §1

[26] = ATCC12228, Staphylococcus epidermidis ATCC 12228, Muller-Hinton agar, 37° C., 20 hours
[27] = ATCC25619, Pseudomonas aeruginosa ATCC 25619, Muller-Hinton agar, 37° C., 20 hours
[28] = ATCC15473, Acinetobacter calcoaceticus ATCC 15473, Muller-Hinton agar, 37° C., 20 hours
[29] = ATCC10145, Pseudomonas aeruginosa ATCC 10145, Muller-Hinton agar, 37° C., 20 hours
[30] = ATCC9341, Micrococcus luteus ATCC 9341, Muller-Hinton agar, 37° C., 20 hours
[31] = ATCC25933, Proteus mirabilis ATCC 25933, Muller-Hinton agar, 37° C., 20 hours
[32] = ATCC10031, Klebsiella pneumoniae ATCC 10031, Muller-Hinton agar, 37° C., 20 hours
[33] = ATCC11778, Bacillus cereus ATCC 11778, Muller-Hinton agar, 37° C., 20 hours
[34] = ATCC6059, Proteus vulgaris ATCC 6059, Muller-Hinton agar, 37° C., 20 hours
[35] = ATCC9885, Bacillus megaterium ATCC 9885, Muller-Hinton agar, 37° C., 20 hours
[36] = ATCC27853, Pseudomonas aeruginosa ATCC 27853, Muller-Hinton agar, 37° C., 20 hours
[37] = Staphylococcus aureus ATCC 6538p, Muller-Hinton agar, 37° C., 20 hours
[38] = ATCC29212, Streptococcus faecalis ATCC 29212, Muller-Hinton agar, 37° C., 20 hours
[39] = ATCC29751, Enterobacter aerogenes ATCC 29751, Muller-Hinton agar, 37° C., 20 hours
[40] = ATCC27117, Serratia marcescens ATCC 27117, Muller-Hinton agar, 37° C., 20 hours
[41] = ATCC27508, Enterobacter cloacae ATCC 27508, Muller-Hinton agar, 37° C., 20 hours
[42] = Salmonella typhimurium ATCC 14028, Muller-Hinton agar, 37° C., 20 hours
[43] = ATCC8090, Citrobacter freundii ATCC 8090, Muller-Hinton agar, 37° C., 20 hours
[44] = ATCC10537, Staphylococcus aureus ATCC 10537, Muller-Hinton agar, 37° C., 20 hours

Work on `CC[n+]1c(N)nc(N)nc1SCC1=C(C(=O)[O-])N2C(=O)C(NC(=O)/C(=N\OC(C)(C)C(=O)O)c3csc(N)n3)[C@H]2SC1` (stereo partly drawn) [Compound I-24, 7-[(Z)-2-(2-aminothiazol-4-yl) -2-(2-carboxyprop-2-oxyimino)acetamido]-3-(4,6-diamino-1-ethyl-1,3,5-triazinium-2-yl)thiomethyl-3-cephem-4-carboxylate] yielded an MIC [1, 26] of 2 mg/L (≈ 3.13 µM), an MIC [2] of at most 0.008 mg/L and an MIC [3, 27] of 1 mg/L (≈ 1.57 µM). It also gave an MIC [4, 28] of 4 mg/L (≈ 6.26 µM), an MIC [5, 29] of 2 mg/L (≈ 3.13 µM) and an MIC [6, 30] of 1 mg/L (≈ 1.57 µM). For the same molecule, the MIC [7, 31] was 0.063 mg/L (≈ 0.0986 µM), the MIC [8, 32] was 0.063 mg/L (≈ 0.0986 µM) and the MIC [9] was 0.13 mg/L (≈ 0.204 µM). The MIC [10] was 0.063 mg/L (≈ 0.0986 µM), the MIC [11, 33] was over 128 mg/L and the MIC [12, 34] was 0.063 mg/L (≈ 0.0986 µM). The MIC [13, 35] was 0.5 mg/L (≈ 0.783 µM), the MIC [14, 36] was 1 mg/L (≈ 1.57 µM) and the MIC [15, 37] was 4 mg/L (≈ 6.26 µM). For the same molecule, the MIC [16, 38] was over 128 mg/L, the MIC [17] was at most 0.008 mg/L and the MIC [18, 39] was 2 mg/L (≈ 3.13 µM). For the same molecule, the MIC [19, 40] was 0.13 mg/L (≈ 0.204 µM), the MIC [20] was 0.063 mg/L (≈ 0.0986 µM) and the MIC [21, 41] was 0.031 mg/L (≈ 0.0485 µM). For the same molecule, the MIC [22, 42] was 0.13 mg/L (≈ 0.204 µM), the MIC [23] was 0.063 mg/L (≈ 0.0986 µM) and the MIC [24, 43] was 0.13 mg/L (≈ 0.204 µM). The MIC [25, 44] was 2 mg/L (≈ 3.13 µM).

In the case of `CC(O/N=C(\C(=O)N[C@@H]1C(=O)N2C(C(=O)[O-])=C(CSc3cc(N)[n+](C)c(N)n3)CS[C@H]12)c1csc(N)n1)C(=O)O` (stereo partly drawn) [Compound I-19, (6R,7R)-7-[(Z)-2-(2-aminothiazol-4-yl)-2-(R,S-carboxyeth-1-oxyimino)acetamido]-3-(2,6-diamino-1-methylpyrimidinium-4-yl)thiomethyl-3-cephem-4-carboxylate], the MIC [1, 26] is reported as 4 mg/L (≈ 6.56 µM), the MIC [2] is reported as at most 0.008 mg/L and the MIC [3, 27] is reported as 1 mg/L (≈ 1.64 µM). For the same molecule, the MIC [4, 28] was 8 mg/L (≈ 13.1 µM), the MIC [5, 29] was 4 mg/L (≈ 6.56 µM) and the MIC [6, 30] was 0.5 mg/L (≈ 0.82 µM). It also gave an MIC [7, 31] of 0.13 mg/L (≈ 0.213 µM), an MIC [8, 32] of 0.063 mg/L (≈ 0.103 µM) and an MIC [9] of 0.13 mg/L (≈ 0.213 µM). For the same molecule, the MIC [10] was 0.13 mg/L (≈ 0.213 µM), the MIC [11, 33] was 128 mg/L (≈ 210 µM) and the MIC [12, 34] was 0.25 mg/L (≈ 0.41 µM). For the same molecule, the MIC [13, 35] was 0.25 mg/L (≈ 0.41 µM), the MIC [14, 36] was 2 mg/L (≈ 3.28 µM) and the MIC [15, 37] was 4 mg/L (≈ 6.56 µM). For the same molecule, the MIC [16, 38] was 128 mg/L (≈ 210 µM), the MIC [17] was at most 0.008 mg/L and the MIC [18, 39] was 1 mg/L (≈ 1.64 µM). It also gave an MIC [19, 40] of 0.25 mg/L (≈ 0.41 µM), an MIC [20] of 0.25 mg/L (≈ 0.41 µM) and an MIC [21, 41] of 0.031 mg/L (≈ 0.0508 µM). For the same molecule, the MIC [22, 42] was 0.25 mg/L (≈ 0.41 µM), the MIC [23] was 0.016 mg/L (≈ 0.0262 µM) and the MIC [24, 43] was 0.13 mg/L (≈ 0.213 µM). It also gave an MIC [25, 44] of 4 mg/L (≈ 6.56 µM).

`CC(C)(O/N=C(\C(=O)N[C@@H]1C(=O)N2C(C(=O)[O-])=C(C[n+]3ccccc3)CS[C@H]12)c1csc(N)n1)C(=O)O` [Ceftazidime, reference compound] showed an MIC ([1]; Staphylococcus epidermidis, ATCC12228, 20 h) of 8 mg/L (≈ 14.6 µM), an MIC [2] of 0.016 mg/L (≈ 0.0293 µM) and an MIC ([3]; Pseudomonas aeruginosa, ATCC25619, 20 h) of 1 mg/L (≈ 1.83 µM). The MIC ([4]; Acinetobacter calcoaceticus, ATCC15473, 20 h) was 4 mg/L (≈ 7.32 µM), the MIC ([5]; Pseudomonas aeruginosa, ATCC10145, 20 h) was 2 mg/L (≈ 3.66 µM) and the MIC ([6]; Micrococcus luteus, ATCC9341, 20 h) was 1 mg/L (≈ 1.83 µM). The MIC ([7]; Proteus mirabilis, ATCC25933, 20 h) was 0.063 mg/L (≈ 0.115 µM), the MIC ([8]; Klebsiella pneumoniae, ATCC10031, 20 h) was 0.13 mg/L (≈ 0.238 µM) and the MIC [9] was 0.13 mg/L (≈ 0.238 µM). It also gave an MIC [10] of 0.13 mg/L (≈ 0.238 µM), an MIC ([11]; Bacillus cereus, ATCC11778, 20 h) of 128 mg/L (≈ 234 µM) and an MIC ([12]; Proteus vulgaris, ATCC6059, 20 h) of 0.063 mg/L (≈ 0.115 µM). It also gave an MIC ([13]; ATCC9885, 20 h) of 0.25 mg/L (≈ 0.457 µM), an MIC ([14]; Pseudomonas aeruginosa, ATCC27853, 20 h) of 1 mg/L (≈ 1.83 µM) and an MIC ([15]; Staphylococcus aureus, 20 h) of 16 mg/L (≈ 29.3 µM). It also gave an MIC ([16]; ATCC29212, 20 h) of over 128 mg/L, an MIC [17] of at most 0.008 mg/L and an MIC ([18]; ATCC29751, 20 h) of 4 mg/L (≈ 7.32 µM). It also gave an MIC ([19]; Serratia marcescens, ATCC27117, 20 h) of 0.13 mg/L (≈ 0.238 µM), an MIC [20] of 0.063 mg/L (≈ 0.115 µM) and an MIC ([21]; Enterobacter cloacae, ATCC27508, 20 h) of 0.063 mg/L (≈ 0.115 µM). For the same molecule, the MIC ([22]; 20 h) was 0.25 mg/L (≈ 0.457 µM), the MIC [23] was 0.063 mg/L (≈ 0.115 µM) and the MIC ([24]; Citrobacter freundii, ATCC8090, 20 h) was 1 mg/L (≈ 1.83 µM). It also gave an MIC ([25]; Staphylococcus aureus, ATCC10537, 20 h) of 8 mg/L (≈ 14.6 µM).
